Laboratory results reported in ChEMBL document CHEMBL1141089, “Conformationally restricted homotryptamines. 2. Indole cyclopropylmethylamines as selective serotonin reuptake inhibitors” (J Med Chem, 2005).
“And” between values parts separate entries of the source, which are not always exact repeats. Equal values may be shown once.

How the values were obtained:
[1] = molecular target: T1, Sodium-dependent dopamine transporter (Homo sapiens, UniProt Q01959); assay: Binding inhibition towards human dopamine transporter at 1 uM
T1 sequence (Q01959 whole entry): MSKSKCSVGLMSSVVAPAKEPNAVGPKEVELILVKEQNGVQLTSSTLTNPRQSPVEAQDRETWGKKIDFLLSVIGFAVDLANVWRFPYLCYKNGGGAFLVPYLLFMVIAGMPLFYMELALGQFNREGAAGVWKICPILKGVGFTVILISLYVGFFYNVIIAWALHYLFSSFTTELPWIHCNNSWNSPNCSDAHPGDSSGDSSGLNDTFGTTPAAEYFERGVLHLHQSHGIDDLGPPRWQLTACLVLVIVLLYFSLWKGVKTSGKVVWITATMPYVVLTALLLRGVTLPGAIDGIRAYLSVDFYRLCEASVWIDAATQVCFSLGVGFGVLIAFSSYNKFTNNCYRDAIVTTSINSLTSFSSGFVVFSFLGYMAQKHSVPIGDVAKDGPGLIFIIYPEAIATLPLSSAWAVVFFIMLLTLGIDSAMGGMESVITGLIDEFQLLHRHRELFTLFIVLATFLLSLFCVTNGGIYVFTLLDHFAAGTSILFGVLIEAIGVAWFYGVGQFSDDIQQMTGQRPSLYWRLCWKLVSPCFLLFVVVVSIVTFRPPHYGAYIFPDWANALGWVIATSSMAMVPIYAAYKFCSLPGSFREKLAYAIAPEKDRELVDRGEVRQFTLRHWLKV

[2] = molecular target: T2, Sodium-dependent serotonin transporter (Homo sapiens, UniProt P31645); assay: Binding inhibition towards human serotonin transporter
T2 sequence (P31645 whole entry): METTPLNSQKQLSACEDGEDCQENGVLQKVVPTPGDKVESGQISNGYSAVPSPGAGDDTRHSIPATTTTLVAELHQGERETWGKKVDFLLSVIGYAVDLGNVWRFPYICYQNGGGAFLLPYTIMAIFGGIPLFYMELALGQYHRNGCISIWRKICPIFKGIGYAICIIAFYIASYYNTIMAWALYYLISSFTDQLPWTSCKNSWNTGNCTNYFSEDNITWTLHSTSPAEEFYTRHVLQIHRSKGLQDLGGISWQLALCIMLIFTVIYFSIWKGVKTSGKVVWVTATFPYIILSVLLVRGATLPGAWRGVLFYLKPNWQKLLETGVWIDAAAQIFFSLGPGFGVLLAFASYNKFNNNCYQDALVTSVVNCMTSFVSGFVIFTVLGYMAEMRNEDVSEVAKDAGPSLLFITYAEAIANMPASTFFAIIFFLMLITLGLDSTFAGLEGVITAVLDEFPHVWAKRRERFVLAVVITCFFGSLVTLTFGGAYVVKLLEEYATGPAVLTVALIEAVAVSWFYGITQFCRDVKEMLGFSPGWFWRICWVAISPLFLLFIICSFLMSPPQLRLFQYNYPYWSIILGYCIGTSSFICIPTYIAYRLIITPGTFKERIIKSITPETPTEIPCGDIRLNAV

[3] = molecular target: T3, Sodium-dependent noradrenaline transporter (Homo sapiens, UniProt P23975); assay: Binding inhibition towards human norepinephrine transporter at 1 uM
T3 sequence (P23975 whole entry): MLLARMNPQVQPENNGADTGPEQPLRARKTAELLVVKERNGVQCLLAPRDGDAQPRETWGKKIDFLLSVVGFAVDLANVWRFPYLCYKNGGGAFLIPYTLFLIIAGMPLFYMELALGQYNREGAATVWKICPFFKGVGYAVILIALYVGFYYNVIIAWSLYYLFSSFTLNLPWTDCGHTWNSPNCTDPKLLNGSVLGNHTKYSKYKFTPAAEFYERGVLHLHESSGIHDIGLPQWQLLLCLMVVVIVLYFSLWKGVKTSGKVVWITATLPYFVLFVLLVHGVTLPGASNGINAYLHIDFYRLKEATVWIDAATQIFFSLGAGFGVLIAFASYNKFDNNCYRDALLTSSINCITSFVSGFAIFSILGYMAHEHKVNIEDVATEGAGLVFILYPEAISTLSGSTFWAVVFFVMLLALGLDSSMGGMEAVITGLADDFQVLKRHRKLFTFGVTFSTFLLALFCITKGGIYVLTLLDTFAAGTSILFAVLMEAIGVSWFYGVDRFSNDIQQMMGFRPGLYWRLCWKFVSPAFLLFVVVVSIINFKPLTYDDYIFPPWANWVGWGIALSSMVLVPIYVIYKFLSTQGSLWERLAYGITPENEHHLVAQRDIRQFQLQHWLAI

[4] = molecular target: T3, Sodium-dependent noradrenaline transporter; assay: In vitro binding affinity towards human norepinephrine transporter
[5] = molecular target: T2, Sodium-dependent serotonin transporter; assay: In vitro binding inhibition towards human serotonin transporter
[6] = molecular target: T1, Sodium-dependent dopamine transporter; assay: Binding inhibition towards human dopamine transporter

Structure (SMILES) | inhibition [1] [%] | Ki [2] | inhibition [3] [%] | Ki [4] [nM] | Ki [5] [nM] | Ki [6] [nM]
CN(C)CCCc1c[nH]c2ccc(F)cc12 | < 50 | 4 nM | < 50 |  |  | 
CN(C)C[C@@H]1C[C@@H]1c1c[nH]c2ccc(F)cc12 (stereo in doubt; 16e) [listing 1 of 2 here] | < 50 |  | < 50 |  |  | 
CN(C)C[C@@H]1C[C@@H]1c1c[nH]c2ccc(F)cc12 (stereo in doubt; (-)-16e) [listing 1 of 2 here] |  | 14 nM |  |  |  | 
CCn1cc([C@H]2C[C@@H]2CN(C)C)c2cc(C#N)ccc21 | < 50 | 1.8 nM | < 50 |  |  | 
CN(C)C[C@H]1C[C@@H]1c1c[nH]c2ccc(C#N)cc12 (racemic) [listing 1 of 2 here] |  | 0.56 nM |  |  |  | 
CN(C)C[C@H]1C[C@@H]1c1c[nH]c2c(F)cccc12 (racemic) | < 50 | 10 nM | < 50 |  |  | 
CN(C)C[C@H]1C[C@@H]1c1cn(C)c2ccc(C#N)cc12 | < 50 | 6.5 nM | < 50 |  |  | 
CN(C)C[C@H]1C[C@H]1c1c[nH]c2ccc(F)cc12 |  | 100 nM |  |  |  | 
CN(C)C[C@H]1C[C@@H]1c1c[nH]c2ccc(F)cc12 (racemic) [listing 1 of 2 here] | < 50 |  | < 50 |  |  | 
CN(C)C[C@H]1C[C@@H]1c1c[nH]c2ccc(F)cc12 (racemic) [listing 2 of 2 here] |  | 2.1 nM |  |  |  | 
CN(C)C[C@H]1C[C@@H]1c1c[nH]c2ccc(F)cc12 [listing 1 of 2 here] |  | 0.68 nM |  |  |  | 
CN(C)C[C@H]1C[C@@H]1c1c[nH]c2cccc(C#N)c12 (racemic) |  | 230 nM and 420 nM |  |  |  | 
CN(C)C[C@@H]1C[C@@H]1c1c[nH]c2ccc(C#N)cc12 [listing 1 of 3 here] | < 50 |  | < 50 |  |  | 
CN(C)C[C@H]1C[C@@H]1c1c[nH]c2cccc(F)c12 (racemic) | < 50 | 59 nM | < 50 |  |  | 
CN(C)C[C@@H]1C[C@H]1c1c[nH]c2ccc(F)cc12 | < 50 | 41 nM | < 50 |  |  | 
CN(C)C[C@@H]1C[C@@H]1c1c[nH]c2ccc(C#N)cc12 [listing 2 of 3 here] |  | 7.1 nM |  |  |  | 
CN(C)C[C@@H]1C[C@@H]1c1c[nH]c2ccc(F)cc12 (stereo in doubt; (-)-16e) [listing 2 of 2 here] | < 50 |  | < 50 |  |  | 
CN(C)C[C@H]1C[C@@H]1c1c[nH]c2c(C#N)cccc12 (racemic) | < 50 | 0.58 nM | < 50 |  |  | 
CN(C)C[C@H]1C[C@@H]1c1c[nH]c2ccc(C#N)cc12 (racemic) [listing 2 of 2 here] | < 50 |  | < 50 |  |  | 
CN(C)C[C@@H]1C[C@@H]1c1c[nH]c2ccc(C#N)cc12 [listing 3 of 3 here] |  | 17 nM |  |  |  | 
CN(C)C[C@@H]1C[C@H]1c1c[nH]c2ccc(C#N)cc12 | < 50 | 8.9 nM | < 50 |  |  | 
CN(C)C[C@@H]1C[C@@H]1c1c[nH]c2ccc(F)cc12 (stereo in doubt; 16e) [listing 2 of 2 here] |  | 24 nM |  |  |  | 
CN(C)C[C@H]1C[C@@H]1c1c[nH]c2ccc(F)cc12 [listing 2 of 2 here] | < 50 |  | < 50 |  |  | 
CN(C)C[C@H]1C[C@@H]1c1c[nH]c2cc(F)ccc12 (racemic) | < 50 | 38 nM | < 50 |  |  | 
CN(C)C[C@H]1C[C@@H]1c1c[nH]c2ccc(C#N)cc12 |  |  |  | 4600 | 0.18 | 2100
CN(C)C[C@H]1C[C@H]1c1c[nH]c2ccc(C#N)cc12 | < 50 | 5.7 nM | < 50 |  |  | 
CN(C)C[C@H]1C[C@@H]1c1c[nH]c2cc(C#N)ccc12 (racemic) | < 50 | 7.4 nM | < 50 |  |  | 
CN(C)CCCc1c[nH]c2ccc(C#N)cc12 | < 50 | 2 nM | < 50 |  |  | 
